Measured values as given in patent US9827235B2, “Pharmaceutical compositions comprising antibacterial agents” (WOCKHARDT LIMITED, priority 2013, dated 2017).

How the values were obtained:
Type in all cases: cell-based
E. coli S 30 = assay: MIC on Muller Hinton Agar (CLSI); conditions: Escherichia coli, S30, agent alone, enzymes CMY type, TEM, NDM-1, read-out: MIC
Description: (§1) The antibacterial activity of combinations according to the invention was investigated against various bacterial strains. In a typical study, minimum inhibitory concentrations (MIC) were determined using Muller Hinton Agar (MHA) (BD, USA) according to Clinical and Laboratory Standards Institute (CLSI) recommendations, (Clinical and Laboratory Standards Institute (CLSI), Performance Standards for Antimicrobial Susceptibility Testing, 20th Informational Supplement, M 100-S20, Volume 30, No. 1, 2010). In short, the inocula were adjusted to deliver about 10^4 colony forming units (CFU) per spot with a multipoint inoculator (Applied Quality Services, UK). The plates were pored with doubling concentration range of the test combinations according to invention containing MHA. The plates were inoculated and were incubated at 35° C. for 18 hours.

K. pneumoniae B 88 = assay: MIC on Muller Hinton Agar (CLSI); conditions: Klebsiella pneumoniae, B88, agent alone, enzymes SHV, TEM, NDM-1, read-out: MIC
Description: as §1

K. pneumoniae NCTC 13439 = assay: MIC on Muller Hinton Agar (CLSI); conditions: Klebsiella pneumoniae, NCTC13439, agent alone, enzymes VIM-1, read-out: MIC
Description: as §1

E. coli S 33 = assay: MIC on Muller Hinton Agar (CLSI); conditions: Escherichia coli, S33, agent alone, enzymes TEM, NDM-1, read-out: MIC
Description: as §1

K. pneumoniae S 48 = assay: MIC on Muller Hinton Agar (CLSI); conditions: Klebsiella pneumoniae, S48, agent alone, enzymes SHV, TEM, NDM-1, read-out: MIC
Description: as §1

E. coli M 44 = assay: MIC on Muller Hinton Agar (CLSI); conditions: Escherichia coli, M44, agent alone, enzymes TEM, NDM-1, read-out: MIC
Description: as §1

E. coli S 330 = assay: MIC on Muller Hinton Agar (CLSI); conditions: Escherichia coli, S330, agent alone, enzymes NDM, read-out: MIC
Description: as §1

K. pneumoniae S 50 = assay: MIC on Muller Hinton Agar (CLSI); conditions: Klebsiella pneumoniae, S50, agent alone, enzymes SHV, TEM, NDM-1, read-out: MIC
Description: as §1

P. aeruginosa Q-111 = assay: MIC on Muller Hinton Agar (CLSI); conditions: Pseudomonas aeruginosa, Q111, agent alone, enzymes OXA-4, OXA-11, read-out: MIC
Description: as §1

E. coli S 35 = assay: MIC on Muller Hinton Agar (CLSI); conditions: Escherichia coli, S35, agent alone, enzymes TEM, NDM-1, read-out: MIC
Description: as §1

P. aeruginosa S 504 = assay: MIC on Muller Hinton Agar (CLSI); conditions: Pseudomonas aeruginosa, S504, agent alone, enzymes VIM-6, read-out: MIC
Description: as §1

E. coli S 16 = assay: MIC on Muller Hinton Agar (CLSI); conditions: Escherichia coli, S16, agent alone, enzymes CMY type, TEM, DHA, read-out: MIC
Description: as §1

K. pneumoniae M 3 = assay: MIC on Muller Hinton Agar (CLSI); conditions: Klebsiella pneumoniae, M3, agent alone, enzymes SHV, CTXM, TEM, NDM-1, read-out: MIC
Description: as §1

P. aeruginosa S 508 = assay: MIC on Muller Hinton Agar (CLSI); conditions: Pseudomonas aeruginosa, S508, agent alone, enzymes VIM-11, read-out: MIC
Description: as §1

P. aeruginosa S 513 = assay: MIC on Muller Hinton Agar (CLSI); conditions: Pseudomonas aeruginosa, S513, agent alone, enzymes VIM-6, read-out: MIC
Description: as §1

[1] = tested on: P. aeruginosa H 113720186; assay: MIC on Muller Hinton Agar (CLSI); conditions: Pseudomonas aeruginosa, H113720186, agent alone, enzymes IMP, read-out: MIC
Description: as §1

K. pneumoniae B 77 = assay: MIC on Muller Hinton Agar (CLSI); conditions: Klebsiella pneumoniae, B77, agent alone, enzymes SHV, TEM, NDM-1, read-out: MIC
Description: as §1

[2] = tested on: clinical isolate of K. pneumoniae B 88 producing metallo beta-lactamases [SHV, TEM, NDM-1]; assay: Time kill study; conditions: for Bacterial count: each agent at 8 mcg/ml, initial count 6.18 log CFU/ml; for Change in bacterial count (in words): used alone at 8 mcg/ml, at the end of 6 hours
Description: (§2) Typically, freshly grown cultures were diluted to the required cell density (initial starting inoculum) in Cation adjusted Muller Hinton broth medium BD, USA). The antibacterial agents at the required concentrations were added into the culture-containing medium either alone or in combination. The samples were incubated under shaking condition (120 rpm) at 37° C. Enumeration of viable bacterial count was undertaken, every 2 hour, by diluting in normal saline and plating on to the Tryptic Soya Agar plates (BD, USA). The plates were incubated for 24 hours to arrive at the viable bacterial count. […] The decrease of 1 Log CFU/ml, after administration of combination of present invention, in comparison to initial bacterial count corresponds to 90% killing of bacteria. Similarly, 2 Log CFU/ml reductions corresponds to 99% killing of bacteria and 3 Log CFU/ml reductions is equal to 99.9% killing of bacteria.

[3] = tested on: clinical isolate of K. pneumoniae S 48 producing metallo beta-lactamases [SHV, TEM, NDM-1]; assay: Time kill study; conditions: for Bacterial count: each agent at 8 mcg/ml, initial count 6.84 log CFU/ml
Description: as §2

[4] = tested on: highly resistant strains of E. coli, K. pneumonia and P. aeruginosa; assay: MIC, summary over the strain panel; conditions: agent alone; most strains of E. coli and K. pneumoniae
Description: as §1

MIC (E. coli S 30)	MIC (K. pneumoniae B 88)	MIC (K. pneumoniae NCTC 13439)	MIC (E. coli S 33)	MIC (K. pneumoniae S 48)	MIC (E. coli M 44)	MIC (E. coli S 330)	MIC (K. pneumoniae S 50)	MIC (P. aeruginosa Q-111)	MIC (E. coli S 35)	MIC (P. aeruginosa S 504)	MIC (E. coli S 16)	MIC (K. pneumoniae M 3)	MIC (P. aeruginosa S 508)	MIC (P. aeruginosa S 513)	MIC [1]	MIC (K. pneumoniae B 77)	SMILES	Bacterial count ([2]; 2 hours)	Bacterial count ([2]; 4 hours)	Bacterial count ([2]; 6 hours)	also measured
0.25 µg/mL	> 32 µg/mL	> 32 µg/mL	0.25 µg/mL	0.5 µg/mL	0.12 µg/mL	0.12 µg/mL	0.5 µg/mL	4 µg/mL	0.25 µg/mL	8 µg/mL	0.25 µg/mL	0.5 µg/mL	8 µg/mL	8 µg/mL	8 µg/mL	> 32 µg/mL	O=C(NNC(=O)[C@@H]1CC[C@@H]2CN1C(=O)N2OS(=O)(=O)O)[C@@H]1CCCNC1 [Compound of Formula (I), (2S,5R)-sulphuric acid mono-[2-(N′—[(R)-piperidin-3-carbonyl]-hydrazinocarbonyl)-7-oxo-1,6-diaza-bicyclo[3.2.1]oct-6-yl] ester]	6.4 Log CFU/ml	6.08 Log CFU/ml	6.28 Log CFU/ml	Change in bacterial count (in words) [2]: no decrease in bacterial count was observed; Bacterial count ([3]; 2 hours): 7.27 Log CFU/ml; Bacterial count ([3]; 4 hours): 7.04 Log CFU/ml; Bacterial count ([3]; 6 hours): 7.45 Log CFU/ml; Change in bacterial count (in words) ([3]; used alone at 8 mcg/ml, at the end of 6 hours): no decrease in bacterial count was observed; MICs (range over the strains) [4]: 0.1 to 0.5 µg/mL
> 64 µg/mL	> 64 µg/mL	> 64 µg/mL	> 64 µg/mL	> 64 µg/mL	> 64 µg/mL	> 64 µg/mL	> 64 µg/mL	16 µg/mL	> 64 µg/mL	> 32 µg/mL	> 64 µg/mL	4 µg/mL	> 32 µg/mL	> 32 µg/mL	> 32 µg/mL	> 64 µg/mL	NCC[C@H](O)C(=O)N[C@@H]1C[C@H](N)[C@@H](O[C@H]2O[C@H](CN)[C@@H](O)[C@H](O)[C@H]2O)[C@H](O)[C@H]1O[C@H]1O[C@H](CO)[C@@H](O)[C@H](N)[C@H]1O [Amikacin, amikacin]	–	–	–	–
> 32 µg/mL	> 32 µg/mL	> 32 µg/mL	> 32 µg/mL	32 µg/mL	32 µg/mL	> 32 µg/mL	> 32 µg/mL	4 µg/mL	> 32 µg/mL	> 32 µg/mL	> 32 µg/mL	16 µg/mL	> 32 µg/mL	> 32 µg/mL	> 64 µg/mL	> 32 µg/mL	C[C@@H](O)[C@H]1C(=O)N2C(C(=O)O)=C(S[C@@H]3CN[C@H](C(=O)N(C)C)C3)[C@H](C)[C@H]12 [Meropenem, meropenem]	6.02 Log CFU/ml	6.3 Log CFU/ml	7.6 Log CFU/ml	Change in bacterial count (in words) [2]: no decrease in bacterial count was observed
